These results are taken from patent US5302589A, “Heterocyclic inhibitors of 5-α-testosterone reductase” (Glaxo, Inc., priority 1992, dated 1994).

The structures appear in SMILES notation.

This assay concerns the target T1, 5-α-reductase (Homo sapiens, UniProt P31213).
T1 construct: microsomes derived from human prostate tissue; from tissue; host or cells: human prostate tissue (BPH patients), microsomes
T1 sequence (P31213 1-254): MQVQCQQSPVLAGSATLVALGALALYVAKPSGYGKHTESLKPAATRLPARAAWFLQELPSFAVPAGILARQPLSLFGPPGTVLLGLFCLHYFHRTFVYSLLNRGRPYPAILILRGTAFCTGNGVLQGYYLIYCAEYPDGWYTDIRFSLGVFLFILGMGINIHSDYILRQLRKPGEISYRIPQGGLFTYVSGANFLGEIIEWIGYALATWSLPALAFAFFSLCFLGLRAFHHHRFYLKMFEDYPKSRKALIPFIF
The experiment in a line: Steroid 5-α-reductase in vitro assay (prostatic microsomes, conversion of [3H]-testosterone to DHT). In kind it is biochemical. The settings on record: microsomes from human (BPH) prostate tissue; 100 nM [1,2,6,7-^3 H]-testosterone, 1 mM NADPH, 60 minutes at 37° C.; HPLC with radiochemical detection; read-out: 5-α-REDUCTASE in vitro INHIBITORY ACTIVITY IC50 Human. The procedure: Enzyme activity may be determined using microsomes derived from prostate tissue of benign prostatic hypertrophy (BPH) patients or from rat prostate tissue. Prostatic microsomes were prepared by homogenization of the tissue, followed by differential centrifugation of the homogenate. Microsome extracts were incubated with 100 nM [1,2,6,7-^3 H]-testosterone, 1 mM NADPH and varying amounts of the a compounds of Formula (I), i.e., a test compound, for 60 minutes at 37° C. Corresponding incubations were carried out with no test compound as a control study. The percentage of conversion of testosterone to DHT in the presence of a test compounds compared to the corresponding conversion in the control study was estimated using high pressure liquid chromatography (HPLC) with radiochemical detection. The results of this assay as IC50 values for microsomes derived from human prostate tissue are show in Table 1.
In the case of `CCN(CC)C(=O)[C@H]1CC[C@H]2[C@@H]3Cn4nnc5c4[C@](C)(CCC5=O)[C@H]3CC[C@]12C` [Compound 1, 17β-N,N-Diethylcarbamoyl-6-azaandrost-4,6-diazo-4-en-3-one], the IC50 was in the range of 100 to 1000 nM. As to `CCN(CC)C(=O)[C@H]1CC[C@H]2[C@@H]3Cn4ccc5c4[C@](C)(CCC5=O)[C@H]3CC[C@]12C` [Compound 2, 17β-N,N-Diethylcarbamoyl-6-azaandrost-4,6-etheno-4-en-3-one], the IC50 was in the range of 10 to 100 nM.

For `CC(C)(C)NC(=O)[C@H]1CC[C@H]2[C@@H]3Cn4ccc5c4[C@](C)(CCC5=O)[C@H]3CC[C@]12C` [Compound 3, 17β-N-t-Butylcarbamoyl-6-azaandrost-4,6-etheno-4-en-3-one], the IC50 was 10 to 100 nM.

Consider `CC(C)(C)NC(=O)[C@H]1CC[C@H]2[C@@H]3CN4CCCCC5=C4[C@](C)(CCC5=O)[C@H]3CC[C@]12C` [Compound 4, 17β-N-t-Butylcarbamoyl-6-azaandrost-4,6-butano-4-en-3-one], for which the IC50 lay within 10 to 100 nM.

In general, IC50 refers to the point on the concentration scale where inhibition reaches its midpoint.
